The source of these data is patent US20100137315A1, “Sphingosine Kinase Inhibitors and Methods of Their Use” (APOGEE BIOTECHNOLOGY CORPORATION, priority 2005, published 2010).

The subject of assay [1] is C57BL/6 mice. Nature of the assay: Acute DSS-colitis model of IBD. Type of assay: in vivo, mouse. The settings on record: 2% DSS, 50 mg/kg oral daily. On the procedure: FIG. 4. Effects of Compound 8 and Dipentum on the DAI in the acute DSS-colitis model. C57BL/6 mice were treated for 6 days as follows: normal drinking water and daily oral administration of PEG (No DSS), 2% DSS in the drinking water and daily oral administration of PEG (DSS alone); 2% DSS in the drinking water and daily oral administration of 50 mg/kg Compound 8 in PEG (DSS+Compound 8), or 2% DSS in the drinking water and daily oral administration of 50 mg/kg Dipentum in PEG (DSS+Dipentum). On the indicated day, the Disease Activity Index was calculated for each group. Values represent the mean±sd for 5-6 mice per group.
FIG. 5. Effects of Compound 8 and Dipentum on colon length in the acute DSS-colitis model. Mice from the experiment described in FIG. 4 were sacrificed on Day 6, and the colon was harvested from each animal and measured. Data represent the mean±sd colon length.
FIG. 6. Effects of Compound 8 and Dipentum on neutrophil infiltration into the colon in the acute DSS-colitis model. Myeloperoxidase (MPO) activity from the colons of the animals described in FIG. 4 was measured. Values the mean±sd MPO activity in units per gram of tissue.
FIG. 7. Effects of Compound 8 and Dipentum on colonic cytokine levels in the acute DSS-colitis model. Colon samples from mice described in FIG. 4 were extracted and assayed for the levels of the indicated cytokines Values represent the mean±sd amount of each cytokine in 4-5 samples per group.
Experiments were conducted with SK inhibitors using the dextran sulfate sodium (DSS) model of IBD. In these experiments, male C57BL/6 mice were provided with standard rodent diet and water ad libitum. After their acclimation, the animals were randomly divided into groups of 5 or 6 for DSS (40,000 MW from ICN Biomedicals, Inc., Aurora, Ohio)— and drug-treatment. […] The body weight of each animal was measured each day, and the Disease Activity Index (DAI) was scored for each animal on Days 4-6. On Day 6, the animals were sacrificed by cervical dislocation and the entire colon was removed and measured to the nearest 0.1 cm.

Assay [2] concerns female DBA/1 mice. Kind of assay: Collagen-Induced Arthritis model. Type of assay: in vivo, mouse. The conditions noted are these: 50 mg/kg orally. On the procedure: FIG. 10. Effects of Compound 8 on disease progression in the collagen-induced arthritis (CIA) model in mice. Female DBA/1 mice were injected with collagen, boosted after 3 weeks and then monitored for symptoms of arthritis. Upon disease manifestation, groups of mice were treated for 12 days as follows: (▴) Compound 8 (50 mg/kg given orally each day for 6 days per week); or (▪) vehicle (PEG400 given under the same schedule). On the indicated Day of treatment, the average clinical score (A) and the average hind paw diameter (B) was determined. * p<0.05 versus PEG400 alone group.
The anti-arthritis activities of the SK inhibitor Compound 8 were assessed in the Collagen-Induced Arthritis model. Female DBA/1 mice were injected subcutaneously in the tail with chicken immunization-grade type II collagen emulsified in complete Freund's adjuvant at 2 mg/mL. Three weeks later, the mice received a collagen booster in incomplete Freund's adjuvant and were monitored daily thereafter for arthritic symptoms. Once mice reached a threshold paw thickness and clinical score, they were randomized into the following treatment groups: Compound 8 (50 mg/kg given orally each day for 6 days per week) or vehicle (Polyethyleneglycol 400 given under the same schedule). The severity of disease in each animal was quantified by measurement of the hind paw volume with digital calipers. Each paw was scored based upon perceived inflammatory activity, in which each paw receives a score of 0-3 as follows: 0=normal; 1=mild, but definite redness and swelling of the ankle or wrist, or apparent redness and swelling limited to individual digits, regardless of the number of affected digits; 2=moderate redness and swelling of the ankle and wrist and 3=severe redness and swelling of the entire paw including digits, with an overall score ranging from 0-12. Differences among treatment groups were tested using ANOVA.
On Day 12, the mice were euthanized and their hind limbs were removed, stripped of skin and muscle, formalin-fixed, decalcified and paraffin-embedded. The limbs were then sectioned and stained with hematoxylin/eosin. Tibiotarsal joints were evaluated histologically for severity of inflammation and synovial hyperplasia.

The target of assay [3] is CDK1/cyclinB (Homo sapiens, UniProt P06493). Kind of assay: Kinase selectivity panel. The class given is biochemical. The conditions noted are these: read-out: percent of control activity of CDK1/cyclinB. On the procedure:
(§1) A common problem with previous attempts to develop protein kinase inhibitors is the lack of selectivity toward the target kinase since the majority of these compounds interact with nucleotide-binding domains that are highly conserved among kinases. To determine if compound of this invention are non-selective kinase inhibitors, the effects of the SK inhibitor, Compound 73, on a diverse panel of 20 purified kinases was determined. The compound was tested at a single concentration of 50 μM.

The target of assay [4] is PDK1 (Homo sapiens, UniProt O15530). Kind of assay: Kinase selectivity panel. The class given is biochemical. The conditions noted are these: read-out: percent of control activity of PDK1. On the procedure: as §1
Assay [5] concerns the target cRaf (Homo sapiens, UniProt P04049). Nature of the assay: Kinase selectivity panel. The conditions noted are these: read-out: percent of control activity of cRaf. The class given is biochemical. On the procedure:
as §1

Assay [6] concerns the target Protein kinase C α (Homo sapiens, UniProt P17252). Kind of assay: Kinase selectivity panel. The conditions noted are these: read-out: percent of control activity of Protein kinase C α. Type of assay: biochemical. On the procedure:
as §1

Assay [7] concerns the target EFGR (Homo sapiens, UniProt P00533). Kind of assay: Kinase selectivity panel. The conditions noted are these: read-out: percent of control activity of EFGR. Type of assay: biochemical. The protocol:
as §1

Assay [8] deals with PKBα (Homo sapiens, UniProt P31749). Nature of the assay: Kinase selectivity panel. Type of assay: biochemical. The conditions noted are these: read-out: percent of control activity of PKBα. The protocol:
as §1

In assay [9] the target is IKKα (Homo sapiens, UniProt O15111). Nature of the assay: Kinase selectivity panel. Type of assay: biochemical. The settings on record: read-out: percent of control activity of IKKα. The protocol: as §1
For assay [10], the target named is cSrc (Homo sapiens, UniProt P12931). Kind of assay: Kinase selectivity panel. The conditions noted are these: read-out: percent of control activity of cSrc. Type of assay: biochemical. The protocol:
as §1

In assay [11] the test system is diverse panel of 20 purified kinases. Nature of the assay: Kinase selectivity panel, overall statement. The class given is biochemical. The conditions noted are these: 50 μM. The protocol: as §1
The panel included both serine/threonine kinases and tyrosine kinases, as well as several that are regulated by their interaction with lipids.

Chain of cSrc (P12931 whole entry, species assumed): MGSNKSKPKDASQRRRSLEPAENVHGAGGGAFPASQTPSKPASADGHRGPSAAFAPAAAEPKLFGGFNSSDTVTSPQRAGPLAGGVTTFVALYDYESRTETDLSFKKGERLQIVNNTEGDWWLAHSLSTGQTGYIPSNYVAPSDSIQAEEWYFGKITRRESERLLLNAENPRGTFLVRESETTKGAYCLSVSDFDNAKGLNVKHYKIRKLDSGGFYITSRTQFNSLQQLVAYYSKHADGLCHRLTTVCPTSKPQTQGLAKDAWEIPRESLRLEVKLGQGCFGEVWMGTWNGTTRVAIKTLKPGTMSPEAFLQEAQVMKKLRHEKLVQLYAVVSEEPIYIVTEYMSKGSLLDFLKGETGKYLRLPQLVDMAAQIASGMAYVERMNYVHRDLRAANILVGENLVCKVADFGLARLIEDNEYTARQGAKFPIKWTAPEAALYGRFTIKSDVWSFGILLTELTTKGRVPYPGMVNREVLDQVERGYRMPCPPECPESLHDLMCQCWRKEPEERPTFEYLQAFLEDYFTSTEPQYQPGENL
Chain of cRaf (P04049 whole entry, species assumed): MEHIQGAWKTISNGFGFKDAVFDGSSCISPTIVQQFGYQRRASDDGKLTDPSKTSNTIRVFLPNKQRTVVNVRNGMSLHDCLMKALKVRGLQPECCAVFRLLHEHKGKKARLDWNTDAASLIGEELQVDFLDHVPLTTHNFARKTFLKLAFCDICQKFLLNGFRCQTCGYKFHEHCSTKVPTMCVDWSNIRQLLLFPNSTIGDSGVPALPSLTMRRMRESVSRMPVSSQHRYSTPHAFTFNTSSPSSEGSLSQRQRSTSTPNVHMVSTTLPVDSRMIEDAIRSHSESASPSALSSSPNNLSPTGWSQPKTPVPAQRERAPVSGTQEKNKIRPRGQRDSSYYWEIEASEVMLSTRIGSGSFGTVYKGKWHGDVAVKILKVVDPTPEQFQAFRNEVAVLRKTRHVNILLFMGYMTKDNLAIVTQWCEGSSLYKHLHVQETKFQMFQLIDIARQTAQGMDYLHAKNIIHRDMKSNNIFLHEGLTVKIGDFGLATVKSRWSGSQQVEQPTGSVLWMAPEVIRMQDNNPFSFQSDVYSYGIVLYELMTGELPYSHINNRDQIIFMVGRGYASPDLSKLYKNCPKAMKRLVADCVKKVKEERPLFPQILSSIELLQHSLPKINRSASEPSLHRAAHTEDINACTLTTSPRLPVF
Chain of IKKα (O15111 whole entry, species assumed): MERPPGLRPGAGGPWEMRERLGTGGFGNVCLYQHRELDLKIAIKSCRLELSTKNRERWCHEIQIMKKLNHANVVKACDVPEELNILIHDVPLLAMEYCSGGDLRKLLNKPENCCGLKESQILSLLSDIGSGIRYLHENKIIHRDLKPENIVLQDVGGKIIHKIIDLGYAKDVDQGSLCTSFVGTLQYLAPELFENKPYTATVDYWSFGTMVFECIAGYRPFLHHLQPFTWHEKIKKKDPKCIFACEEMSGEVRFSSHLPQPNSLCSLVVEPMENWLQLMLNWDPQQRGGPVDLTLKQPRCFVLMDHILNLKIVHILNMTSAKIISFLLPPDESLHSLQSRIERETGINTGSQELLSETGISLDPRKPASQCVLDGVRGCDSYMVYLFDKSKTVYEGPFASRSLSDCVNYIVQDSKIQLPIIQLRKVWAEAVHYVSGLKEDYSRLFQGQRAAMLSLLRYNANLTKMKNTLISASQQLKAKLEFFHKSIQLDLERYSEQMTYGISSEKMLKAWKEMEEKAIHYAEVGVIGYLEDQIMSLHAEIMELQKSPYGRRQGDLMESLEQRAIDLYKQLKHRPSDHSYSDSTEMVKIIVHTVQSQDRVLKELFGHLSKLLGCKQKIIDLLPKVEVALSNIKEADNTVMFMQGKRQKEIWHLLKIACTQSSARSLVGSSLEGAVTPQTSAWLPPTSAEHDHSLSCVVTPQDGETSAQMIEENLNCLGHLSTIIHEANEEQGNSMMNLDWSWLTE
Chain of CDK1/cyclinB (P06493 whole entry, species assumed, the tested form may be a part): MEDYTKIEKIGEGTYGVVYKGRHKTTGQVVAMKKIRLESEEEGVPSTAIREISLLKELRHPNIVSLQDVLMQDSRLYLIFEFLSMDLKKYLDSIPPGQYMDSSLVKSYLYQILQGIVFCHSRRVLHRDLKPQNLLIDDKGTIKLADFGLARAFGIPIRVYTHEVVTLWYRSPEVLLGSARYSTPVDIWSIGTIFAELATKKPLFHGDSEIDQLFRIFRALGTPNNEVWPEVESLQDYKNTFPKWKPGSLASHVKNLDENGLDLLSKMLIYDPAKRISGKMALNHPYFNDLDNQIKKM
Chain of CDK1/cyclinB (P14635 whole entry partner, species assumed, the tested form may be a part): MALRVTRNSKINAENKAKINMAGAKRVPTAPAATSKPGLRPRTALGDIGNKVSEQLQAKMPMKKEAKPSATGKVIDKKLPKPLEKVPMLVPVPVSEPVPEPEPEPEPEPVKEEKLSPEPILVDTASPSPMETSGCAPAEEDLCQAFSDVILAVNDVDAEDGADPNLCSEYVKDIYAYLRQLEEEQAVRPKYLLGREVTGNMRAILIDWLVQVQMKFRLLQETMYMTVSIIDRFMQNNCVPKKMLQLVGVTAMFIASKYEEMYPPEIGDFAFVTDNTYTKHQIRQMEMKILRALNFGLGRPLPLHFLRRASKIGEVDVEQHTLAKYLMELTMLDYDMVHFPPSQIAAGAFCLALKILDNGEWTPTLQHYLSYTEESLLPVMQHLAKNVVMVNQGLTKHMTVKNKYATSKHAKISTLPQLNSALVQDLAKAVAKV
Chain of EFGR (P00533 25-1210): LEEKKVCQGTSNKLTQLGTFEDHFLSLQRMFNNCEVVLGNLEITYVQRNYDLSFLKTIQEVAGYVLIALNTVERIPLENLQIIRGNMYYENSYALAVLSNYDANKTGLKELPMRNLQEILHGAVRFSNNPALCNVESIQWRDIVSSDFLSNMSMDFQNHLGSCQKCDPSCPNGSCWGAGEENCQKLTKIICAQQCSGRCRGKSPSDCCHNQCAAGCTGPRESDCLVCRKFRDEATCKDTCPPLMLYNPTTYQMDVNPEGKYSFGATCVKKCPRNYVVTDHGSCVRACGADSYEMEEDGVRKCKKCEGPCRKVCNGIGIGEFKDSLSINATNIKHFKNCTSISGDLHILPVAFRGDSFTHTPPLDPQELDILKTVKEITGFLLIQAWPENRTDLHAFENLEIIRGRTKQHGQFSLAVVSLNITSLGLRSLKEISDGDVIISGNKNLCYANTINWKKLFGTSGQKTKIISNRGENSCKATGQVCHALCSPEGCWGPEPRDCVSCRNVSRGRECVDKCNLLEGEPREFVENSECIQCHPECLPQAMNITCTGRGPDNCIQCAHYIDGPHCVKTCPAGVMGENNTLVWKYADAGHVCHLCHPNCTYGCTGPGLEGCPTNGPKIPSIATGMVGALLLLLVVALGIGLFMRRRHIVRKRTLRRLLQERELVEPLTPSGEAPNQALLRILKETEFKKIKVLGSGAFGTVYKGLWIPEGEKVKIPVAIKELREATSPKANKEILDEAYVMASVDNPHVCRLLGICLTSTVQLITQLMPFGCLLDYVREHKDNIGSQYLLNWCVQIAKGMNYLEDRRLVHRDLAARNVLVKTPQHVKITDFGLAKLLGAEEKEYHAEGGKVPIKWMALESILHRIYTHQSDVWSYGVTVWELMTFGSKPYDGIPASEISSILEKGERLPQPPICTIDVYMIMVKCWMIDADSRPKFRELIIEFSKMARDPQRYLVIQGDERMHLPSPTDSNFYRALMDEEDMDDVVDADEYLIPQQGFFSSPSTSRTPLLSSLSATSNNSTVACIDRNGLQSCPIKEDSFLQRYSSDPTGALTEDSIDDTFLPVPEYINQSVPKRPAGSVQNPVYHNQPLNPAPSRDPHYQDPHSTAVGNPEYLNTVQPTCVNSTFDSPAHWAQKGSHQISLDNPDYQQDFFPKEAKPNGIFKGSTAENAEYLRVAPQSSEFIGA
Chain of PKBα (P31749 whole entry, species assumed): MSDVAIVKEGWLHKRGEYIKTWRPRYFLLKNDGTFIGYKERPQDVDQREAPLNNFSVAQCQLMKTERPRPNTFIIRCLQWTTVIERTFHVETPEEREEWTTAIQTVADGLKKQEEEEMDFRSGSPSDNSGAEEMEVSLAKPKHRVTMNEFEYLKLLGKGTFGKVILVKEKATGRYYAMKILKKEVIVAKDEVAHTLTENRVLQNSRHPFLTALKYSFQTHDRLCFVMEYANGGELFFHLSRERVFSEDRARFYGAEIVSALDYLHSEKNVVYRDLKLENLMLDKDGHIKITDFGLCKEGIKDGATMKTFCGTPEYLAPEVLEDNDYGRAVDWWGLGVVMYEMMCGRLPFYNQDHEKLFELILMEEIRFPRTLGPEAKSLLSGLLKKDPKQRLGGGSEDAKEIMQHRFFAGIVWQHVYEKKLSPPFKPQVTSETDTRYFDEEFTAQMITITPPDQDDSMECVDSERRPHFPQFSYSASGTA

For the molecule `CCCC(=O)Oc1ccc(C=CC(=O)Nc2nc(-c3ccc(Cl)cc3)cs2)cc1OC` [Compound 8, Butyric acid 4-{2-[4-(4-chloro-phenyl)-thiazol-2-ylcarbamoyl]-vinyl}-2-methoxy-phenyl ester], the “increase in colonic MPO activity” value in assay [1] is on record as “markedly attenuated”. In addition, the colon length result in [1] (Day 6) is reported as “intermediate length”. The “Disease Activity Index (DAI)” value in assay [1] (Days 4-6) is “reduced the intensity of the IBD manifestations”. Besides, in assay [2] (6 days per week, Day 12), the “reduction in clinical score vs vehicle” value was 65% and the “reduction in the increase in hind paw thickness vs vehicle” value came out at 72%. Also, the “histologic damage of tibiotarsal joints” value in assay [2] (Day 12) is reported as “significantly reduced”. The “inflammation response (Average Clinical Score, Average Hind Paw Diameter)” value in [2] (significant decreases beginning at Day 4) is “dramatically slowed”.
With `Clc1ccc(-c2csc(NCc3ccccc3)n2)cc1` [Compound 73, Benzyl-[4-(4-chloro-phenyl)-thiazol-2-yl]-amine], the remaining activity at 50 µM in [3] is 100%; in [4] it was 98 ± 6%; in assay [5] it was 104 ± 1%; in assay [6] it was 92 ± 1%; in [7] it was 99 ± 9%; in assay [8] it was 102 ± 1%. Also, the remaining activity at 50 µM was determined as 152 ± 7% in assay [9] and 119 ± 6% in [10]. Also, the “inhibition of the 20 kinases of the panel” value in assay [11] was “none of the 20 diverse kinases tested were significantly inhibited”.
